# Measurements as given in ChEMBL document CHEMBL3879911, “Heteroaryl compounds useful as inhibitors of E1 activating enzymes” (2008).
# Molecular target: T1, NEDD8 activating enzyme (Homo sapiens, UniProt Q8TBC4)
# T1 sequence (Q8TBC4 whole entry): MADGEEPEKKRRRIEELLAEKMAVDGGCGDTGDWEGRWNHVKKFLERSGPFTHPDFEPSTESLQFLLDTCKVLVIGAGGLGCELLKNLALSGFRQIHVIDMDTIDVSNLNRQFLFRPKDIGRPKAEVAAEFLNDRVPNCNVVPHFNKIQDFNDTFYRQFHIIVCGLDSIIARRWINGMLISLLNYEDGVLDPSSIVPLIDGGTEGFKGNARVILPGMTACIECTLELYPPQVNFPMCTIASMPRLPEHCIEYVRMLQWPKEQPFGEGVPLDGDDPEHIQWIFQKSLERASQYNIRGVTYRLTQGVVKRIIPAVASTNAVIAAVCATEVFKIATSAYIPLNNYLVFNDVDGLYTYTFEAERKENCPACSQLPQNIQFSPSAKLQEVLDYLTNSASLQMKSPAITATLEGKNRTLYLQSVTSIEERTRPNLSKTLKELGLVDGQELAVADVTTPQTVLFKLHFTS
# T1 sequence (Q13564 whole entry): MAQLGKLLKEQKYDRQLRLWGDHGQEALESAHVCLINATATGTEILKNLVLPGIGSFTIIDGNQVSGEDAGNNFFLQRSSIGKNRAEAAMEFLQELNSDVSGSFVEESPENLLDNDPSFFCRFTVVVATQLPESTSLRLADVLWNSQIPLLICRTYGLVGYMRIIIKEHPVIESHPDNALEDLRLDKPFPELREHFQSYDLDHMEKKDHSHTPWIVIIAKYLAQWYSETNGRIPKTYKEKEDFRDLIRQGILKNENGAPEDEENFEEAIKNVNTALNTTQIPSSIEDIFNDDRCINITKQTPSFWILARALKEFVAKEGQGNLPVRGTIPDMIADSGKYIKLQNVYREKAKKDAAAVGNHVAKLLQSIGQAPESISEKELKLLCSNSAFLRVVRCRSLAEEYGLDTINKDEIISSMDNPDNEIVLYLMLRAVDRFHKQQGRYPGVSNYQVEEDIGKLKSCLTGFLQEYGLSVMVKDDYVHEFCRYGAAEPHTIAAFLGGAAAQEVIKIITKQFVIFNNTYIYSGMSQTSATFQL
# Experiment: Inhibition of recombinant human NAEalpha/N-terminal His-tagged NAEbeta expressed in baculovirus infected insect Sf9 cells using N-terminal FLAG tagged Nedd8 as substrate incubated for 105 mins in presence of N-terminal GST-tagged Ubc12 by FRET assay
row,SMILES,IC50 [nM]
1,NS(=O)(=O)OC[C@@H]1C[C@@H](Oc2ncnc3nc(-c4cnn(Cc5ccccc5)c4)[nH]c23)C[C@@H]1O,≤ 500
2,OC[C@@H]1C[C@@H](Nc2ncnc3[nH]c(-c4cccc5c4CCCC5)nc23)C[C@@H]1O,500 to 10000
3,NS(=O)(=O)OC[C@@H]1C[C@@H](Nc2cc(N[C@H]3CCc4ccccc43)ncn2)C[C@@H]1O,≤ 500
4,NS(=O)(=O)OC[C@H]1C[C@@H](NC(=O)c2ccccn2)[C@H](O)[C@@H]1O,> 10000
5,NS(=O)(=O)OC[C@@H]1C[C@@H](Nc2c(Cl)cnc3[nH]c(-c4cccc5ccccc45)nc23)C[C@@H]1O,≤ 500
6,NS(=O)(=O)OC[C@@H]1C[C@@H](Nc2ncnc3[nH]c(-c4cccc5c4OCCO5)nc23)C[C@@H]1O,≤ 500
7,NS(=O)(=O)OC[C@@H]1C[C@@H](Nc2cc(CCc3ccccc3)ncn2)C[C@@H]1O,500 to 10000
8,NS(=O)(=O)OC[C@@H]1C[C@@H](Nc2ncnc3nc(-c4ccc(OCc5ccccc5)cc4)[nH]c23)C[C@@H]1O,≤ 500
9,CO[C@H]1Cc2ccccc2[C@H]1Nc1cc(N[C@@H]2C[C@H](COS(N)(=O)=O)[C@@H](O)[C@H]2O)ncn1,≤ 500
10,CN(C)C[C@H]1Cc2ccccc2[C@H]1Nc1cc(O[C@@H]2C[C@@H](COS(N)(=O)=O)[C@@H](O)C2)ncn1,500 to 10000
11,NS(=O)(=O)OC[C@@H]1C[C@@H](Nc2ncnc3nc(-c4cccc5c4OCC5)[nH]c23)C[C@@H]1O,≤ 500
12,COc1cccc(OC)c1-c1nc2c(N[C@@H]3C[C@@H](COS(N)(=O)=O)[C@@H](O)C3)ncnc2[nH]1,≤ 500
13,NS(=O)(=O)OC[C@H]1C[C@@H](Nc2ncnc3[nH]c(-c4ccccc4)nc23)[C@H](O)[C@@H]1O,≤ 500
14,NS(=O)(=O)OC[C@@H]1C[C@@H](Oc2ccncn2)C[C@@H]1O,> 10000
15,CC1(C)C[C@H](Nc2cc(N[C@@H]3C[C@@H](COS(N)(=O)=O)[C@@H](O)C3)ncn2)c2ccccc21,≤ 500
16,NS(=O)(=O)OC[C@H]1C[C@@H](Nc2cc(N[C@@H]3CCC[C@H]3OCc3ccccc3)ncn2)[C@H](O)[C@@H]1O,> 10000
17,CN(Cc1ccccc1)c1cc(N[C@@H]2C[C@H](COS(N)(=O)=O)[C@@H](O)[C@H]2O)ncn1,> 10000
18,NS(=O)(=O)OC[C@H]1C[C@@H](O)[C@H](Nc2cc(N[C@H]3CCc4ccccc43)ncn2)C1,> 10000

row,SMILES,IC50 [nM]
1,CO[C@H]1Cc2ccccc2[C@H]1Nc1cc(O[C@@H]2C[C@@H](CNS(N)(=O)=O)[C@@H](O)C2)ncn1,≤ 500
2,NS(=O)(=O)OC[C@H]1C[C@@H](Nc2cc(C#Cc3ccccc3)ncn2)[C@H](O)[C@@H]1O,≤ 500
3,NS(=O)(=O)OC[C@@H]1C[C@@H](Nc2ncnc3[nH]c(-c4cccc(Cl)c4)nc23)C[C@@H]1O,≤ 500
4,NS(=O)(=O)OC[C@H]1C[C@@H](NC(=O)c2ccncc2)[C@H](O)[C@@H]1O,500 to 10000
5,CC1(C)C[C@H](Nc2cc(O[C@@H]3C[C@@H](COS(N)(=O)=O)[C@@H](O)C3)ccn2)c2ccc(Cl)cc21,500 to 10000
6,NS(=O)(=O)OC[C@@H]1C[C@@H](Nc2ncnc3[nH]c(Cc4ccccc4)nc23)C[C@@H]1O,≤ 500
7,COc1ccc2c(c1)[C@H](Nc1cc(O[C@@H]3C[C@@H](COS(N)(=O)=O)[C@@H](O)C3)ncn1)[C@H](OC)CC2,500 to 10000
8,CO[C@H]1Cc2ccccc2[C@H]1Nc1ncnc(N[C@@H]2C[C@@H](COS(N)(=O)=O)[C@@H](O)C2)n1,≤ 500
9,Cc1cccc(S(=O)(=O)c2nc3c(O[C@@H]4C[C@@H](COS(N)(=O)=O)[C@@H](O)C4)ncnc3[nH]2)c1,≤ 500
10,NS(=O)(=O)OC[C@H]1C[C@@H](Nc2ccnc(NCc3ccccc3)n2)[C@H](O)[C@@H]1O,500 to 10000
11,CO[C@H]1Cc2ccccc2[C@H]1Nc1cc(O[C@@H]2C[C@@H](COS(N)(=O)=O)[C@@H](O)C2)ncn1,≤ 500
12,NS(=O)(=O)OC[C@@H]1C[C@@H](Nc2ncnc3[nH]c(C4CCCCC4)nc23)C[C@@H]1O,≤ 500
13,NS(=O)(=O)OC[C@@H]1C[C@@H](Oc2ccnc3[nH]c(-c4cccc5ccccc45)nc23)C[C@@H]1O,≤ 500
14,Cc1nc(NCc2ccccc2)cc(N[C@@H]2C[C@H](COS(N)(=O)=O)[C@@H](O)[C@H]2O)n1,> 10000
15,NS(=O)(=O)OC[C@H]1C[C@@H](Nc2cc(N[C@@H]3CCc4ccccc43)ncn2)[C@H](O)[C@@H]1O,≤ 500
16,NS(=O)(=O)OC[C@H]1C[C@@H](Nc2cc(N[C@H]3CCc4c(F)ccc(F)c43)ncn2)[C@H](O)[C@@H]1O,≤ 500
17,CC1(C)Cc2cccc(-c3nc4c(N[C@@H]5C[C@@H](COS(N)(=O)=O)[C@@H](O)C5)ncnc4[nH]3)c2O1,≤ 500

# Continued, values first:
row,IC50 [nM],SMILES
1,≤ 500,NS(=O)(=O)OC[C@@H]1C[C@@H](Nc2ncnc3[nH]c(-c4ccccc4OC(F)(F)F)nc23)C[C@@H]1O
2,500 to 10000,NS(=O)(=O)OC[C@@H]1C[C@@H](Oc2cc(Cc3ccccc3)ncn2)C[C@@H]1O
3,≤ 500,NS(=O)(=O)OC[C@H]1C[C@@H](Nc2cc(NCC3CCCCC3)ncn2)[C@H](O)[C@@H]1O
4,≤ 500,CN(C)c1ccccc1-c1nc2c(N[C@@H]3C[C@@H](COS(N)(=O)=O)[C@@H](O)C3)ncnc2[nH]1
5,≤ 500,CO[C@H]1Cc2ccccc2[C@H]1Nc1cc(N[C@@H]2C[C@@H](COS(N)(=O)=O)[C@@H](O)C2)ncn1
6,500 to 10000,NS(=O)(=O)OC[C@@H]1C[C@@H](Oc2ccnc(N[C@H]3CCc4ccccc43)c2)C[C@@H]1O
7,≤ 500,NS(=O)(=O)OC[C@@H]1C[C@@H](Nc2ncnc3[nH]c(-c4cccc5c4oc4ccccc45)nc23)C[C@@H]1O
8,≤ 500,NS(=O)(=O)OC[C@@H]1C[C@@H](Oc2ncnc3nc(-c4c[nH]c5ccccc45)[nH]c23)C[C@@H]1O
9,≤ 500,NS(=O)(=O)OC[C@@H]1C[C@@H](Nc2cc(N[C@H]3CCc4ccccc43)ncn2)[C@H](O)[C@@H]1O
10,≤ 500,CO[C@@H]1CCc2ccccc2[C@@H]1Nc1cc(O[C@@H]2C[C@@H](COS(N)(=O)=O)[C@@H](O)C2)ncn1
11,≤ 500,NS(=O)(=O)OC[C@@H]1C[C@@H](Nc2ncnc3[nH]c(-c4cccc5ccccc45)nc23)C[C@@H]1O
12,> 10000,Cc1c(N[C@H]2CCc3ccccc32)ncnc1O[C@@H]1C[C@@H](COS(N)(=O)=O)[C@@H](O)C1
13,500 to 10000,NS(=O)(=O)OC[C@@H]1C[C@@H](Cc2cc(N[C@H]3CCc4ccccc43)ncn2)C[C@@H]1O
14,≤ 500,CO[C@@H]1CC(C)(C)c2ccccc2[C@@H]1Nc1cc(O[C@@H]2C[C@@H](COS(N)(=O)=O)[C@@H](O)C2)ncn1
15,> 10000,NS(=O)(=O)OC[C@@H]1C[C@@H](O)[C@H](Nc2cc(N[C@H]3CCc4ccccc43)ncn2)C1
16,≤ 500,NS(=O)(=O)OC[C@H]1C[C@@H](Nc2ncnc3[nH]cnc23)[C@H](O)[C@@H]1O

row,IC50 [nM],SMILES
1,500 to 10000,NS(=O)(=O)OC[C@@H]1C[C@@H](Oc2cc(OCc3cccc4ccccc34)ncn2)C[C@@H]1O
2,≤ 500,NS(=O)(=O)OC[C@H]1C[C@@H](Nc2cc(N[C@H]3CCc4cc(F)c(F)cc43)ncn2)[C@H](O)[C@@H]1O
3,500 to 10000,NS(=O)(=O)OC[C@@H]1C[C@@H](Oc2cc(-c3ccccc3)ncn2)C[C@@H]1O
4,≤ 500,NS(=O)(=O)OC[C@@H]1C[C@@H](Oc2cc(NCc3cccc4ccccc34)ncn2)C[C@@H]1O
5,≤ 500,NS(=O)(=O)OC[C@@H]1C[C@@H](Oc2cc(N[C@H]3CCc4ccccc43)ncn2)C[C@@H]1O
6,≤ 500,CC1(C)C[C@H](Nc2nccc(N[C@@H]3C[C@H](COS(N)(=O)=O)[C@@H](O)[C@H]3O)n2)c2ccccc21
7,500 to 10000,NS(=O)(=O)OC[C@@H]1C[C@@H](Oc2ncnc3c2ncn3Cc2ccccc2)C[C@@H]1O
8,≤ 500,CC1(C)C[C@H](Nc2ncnc(N[C@@H]3C[C@@H](COS(N)(=O)=O)[C@@H](O)C3)c2F)c2ccccc21
9,≤ 500,Cc1cccc(-c2nc3c(N[C@@H]4C[C@@H](COS(N)(=O)=O)[C@@H](O)C4)ncnc3[nH]2)c1C
10,> 10000,NS(=O)(=O)OC[C@H]1C[C@@H](Nc2ccnc(C(=O)N[C@H]3CCc4ccccc43)c2)[C@H](O)[C@@H]1O
11,≤ 500,NS(=O)(=O)OC[C@H]1C[C@@H](Nc2cc(NCc3ccccc3)ncn2)[C@H](O)[C@@H]1O
12,≤ 500,NS(=O)(=O)OC[C@H]1C[C@@H](Nc2cc(N[C@H]3CCc4ccccc43)ncn2)[C@H](O)[C@@H]1O
13,≤ 500,CO[C@H]1CCc2ccccc2[C@H]1Nc1cc(O[C@@H]2C[C@@H](COS(N)(=O)=O)[C@@H](O)C2)ncn1
14,≤ 500,NS(=O)(=O)OC[C@@H]1C[C@@H](Nc2ncnc3[nH]c(-c4ccccc4Oc4ccccc4)nc23)C[C@@H]1O
15,500 to 10000,COc1ccc2c(c1)[C@@H](Nc1cc(O[C@@H]3C[C@@H](COS(N)(=O)=O)[C@@H](O)C3)ncn1)[C@@H](OC)CC2
